Active and inactive are the calls of the source.
Tests used:
Estrogen receptor = target: T1, Estrogen receptor (Homo sapiens, UniProt P03372);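 further: potency for inhibiting coactivator peptide recruitment to the receptor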
T1 sequence (P03372 whole entry): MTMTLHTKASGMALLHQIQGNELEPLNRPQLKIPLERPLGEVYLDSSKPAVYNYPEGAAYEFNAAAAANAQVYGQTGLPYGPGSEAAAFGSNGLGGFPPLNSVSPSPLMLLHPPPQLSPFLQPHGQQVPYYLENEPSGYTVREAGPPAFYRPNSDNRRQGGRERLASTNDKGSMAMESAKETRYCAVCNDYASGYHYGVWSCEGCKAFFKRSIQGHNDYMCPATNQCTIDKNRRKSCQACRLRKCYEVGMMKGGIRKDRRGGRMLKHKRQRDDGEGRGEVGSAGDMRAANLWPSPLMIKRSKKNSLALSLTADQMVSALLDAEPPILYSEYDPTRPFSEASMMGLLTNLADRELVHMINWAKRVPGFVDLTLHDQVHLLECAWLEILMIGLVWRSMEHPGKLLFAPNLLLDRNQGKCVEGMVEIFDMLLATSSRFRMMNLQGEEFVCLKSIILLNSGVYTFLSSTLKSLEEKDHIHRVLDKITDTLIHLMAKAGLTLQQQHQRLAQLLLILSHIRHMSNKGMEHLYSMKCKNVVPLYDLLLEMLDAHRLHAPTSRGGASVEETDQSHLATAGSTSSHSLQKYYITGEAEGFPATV

Estrogen receptor beta [1] = target: T2, Estrogen receptor beta (Homo sapiens, UniProt Q92731);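 further: recombinant ER-beta bound to coactivator SRC1 peptide in presence of estradiol agonist; inhibitors block coactivator peptide binding and lower the FRET signal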
Estrogen receptor beta [2] = target: T2, Estrogen receptor beta; assay: ERβ–SRC-3 coactivator interaction inhibitors, confirmation, orthogonal assay, biochemical, ELISA, streptavidin-HRP readout (AID 1060)
INS1 = assay: beta cell apoptosis inhibitors, cytokine rescue, dose response, luminescence, retest (AID 449756); format: functional, cell-based; conditions: Rattus norvegicus;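 further: cell death triggered by IL-1 beta plus TNF-alpha plus IFN-gamma mixture; protective hits raise ATP signal compared with cytokine alone wells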
Beta-galactosidase = Beta-galactosidase (Escherichia coli, UniProt Q8VNN2); assay: Dose response counterscreen for EBI2 assay utilizing the enzyme, b-galactosidase.; format: functional
[3] = human group III sPLA2 inhibitors, dose response, biochemical, QFRET, IC50 (AID 743457);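 further: green fluorescence rise as the enzyme cleaves BODIPY PC-A2 in liposomes; potency for inhibition of the enzyme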
[4] = target: T3, Lysine-specific demethylase 4C (Homo sapiens, UniProt Q9H3R0); assay: GASC-1 (JMJD2C) histone demethylase inhibitors, dose response, biochemical, DELFIA europium, cherry-picked samples (AID 488835); format: functional
T3 sequence (Q9H3R0 whole entry): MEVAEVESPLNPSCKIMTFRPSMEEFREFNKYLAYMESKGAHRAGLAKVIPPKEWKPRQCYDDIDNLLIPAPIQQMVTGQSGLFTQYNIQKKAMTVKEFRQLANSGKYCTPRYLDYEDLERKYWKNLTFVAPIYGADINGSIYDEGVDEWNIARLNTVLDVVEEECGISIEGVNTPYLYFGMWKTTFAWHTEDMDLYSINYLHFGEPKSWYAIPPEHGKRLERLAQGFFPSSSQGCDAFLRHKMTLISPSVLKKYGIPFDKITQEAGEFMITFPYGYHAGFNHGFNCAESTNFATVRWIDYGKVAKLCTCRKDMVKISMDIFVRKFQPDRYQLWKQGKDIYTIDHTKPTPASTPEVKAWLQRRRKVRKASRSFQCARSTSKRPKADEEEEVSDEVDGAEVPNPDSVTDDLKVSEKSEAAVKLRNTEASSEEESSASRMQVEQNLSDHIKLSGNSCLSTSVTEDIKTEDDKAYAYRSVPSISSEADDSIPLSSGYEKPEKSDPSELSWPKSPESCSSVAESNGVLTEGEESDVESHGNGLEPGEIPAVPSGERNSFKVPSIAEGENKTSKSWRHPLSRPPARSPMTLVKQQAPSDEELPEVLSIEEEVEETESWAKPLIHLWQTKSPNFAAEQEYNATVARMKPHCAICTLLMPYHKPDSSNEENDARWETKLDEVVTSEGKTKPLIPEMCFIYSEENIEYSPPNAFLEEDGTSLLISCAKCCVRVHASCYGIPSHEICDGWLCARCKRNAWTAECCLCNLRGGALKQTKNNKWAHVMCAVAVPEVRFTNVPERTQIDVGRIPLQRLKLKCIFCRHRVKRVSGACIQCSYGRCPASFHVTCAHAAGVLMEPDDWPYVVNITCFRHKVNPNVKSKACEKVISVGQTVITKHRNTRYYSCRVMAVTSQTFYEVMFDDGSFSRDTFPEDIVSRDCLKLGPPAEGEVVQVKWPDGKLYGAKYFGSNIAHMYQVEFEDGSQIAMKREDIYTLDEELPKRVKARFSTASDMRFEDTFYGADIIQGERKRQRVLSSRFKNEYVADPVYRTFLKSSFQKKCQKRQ

[5] = target: T4, Apoptotic protease-activating factor 1 (Homo sapiens, UniProt O14727); format: functional
T4 sequence (O14727 whole entry): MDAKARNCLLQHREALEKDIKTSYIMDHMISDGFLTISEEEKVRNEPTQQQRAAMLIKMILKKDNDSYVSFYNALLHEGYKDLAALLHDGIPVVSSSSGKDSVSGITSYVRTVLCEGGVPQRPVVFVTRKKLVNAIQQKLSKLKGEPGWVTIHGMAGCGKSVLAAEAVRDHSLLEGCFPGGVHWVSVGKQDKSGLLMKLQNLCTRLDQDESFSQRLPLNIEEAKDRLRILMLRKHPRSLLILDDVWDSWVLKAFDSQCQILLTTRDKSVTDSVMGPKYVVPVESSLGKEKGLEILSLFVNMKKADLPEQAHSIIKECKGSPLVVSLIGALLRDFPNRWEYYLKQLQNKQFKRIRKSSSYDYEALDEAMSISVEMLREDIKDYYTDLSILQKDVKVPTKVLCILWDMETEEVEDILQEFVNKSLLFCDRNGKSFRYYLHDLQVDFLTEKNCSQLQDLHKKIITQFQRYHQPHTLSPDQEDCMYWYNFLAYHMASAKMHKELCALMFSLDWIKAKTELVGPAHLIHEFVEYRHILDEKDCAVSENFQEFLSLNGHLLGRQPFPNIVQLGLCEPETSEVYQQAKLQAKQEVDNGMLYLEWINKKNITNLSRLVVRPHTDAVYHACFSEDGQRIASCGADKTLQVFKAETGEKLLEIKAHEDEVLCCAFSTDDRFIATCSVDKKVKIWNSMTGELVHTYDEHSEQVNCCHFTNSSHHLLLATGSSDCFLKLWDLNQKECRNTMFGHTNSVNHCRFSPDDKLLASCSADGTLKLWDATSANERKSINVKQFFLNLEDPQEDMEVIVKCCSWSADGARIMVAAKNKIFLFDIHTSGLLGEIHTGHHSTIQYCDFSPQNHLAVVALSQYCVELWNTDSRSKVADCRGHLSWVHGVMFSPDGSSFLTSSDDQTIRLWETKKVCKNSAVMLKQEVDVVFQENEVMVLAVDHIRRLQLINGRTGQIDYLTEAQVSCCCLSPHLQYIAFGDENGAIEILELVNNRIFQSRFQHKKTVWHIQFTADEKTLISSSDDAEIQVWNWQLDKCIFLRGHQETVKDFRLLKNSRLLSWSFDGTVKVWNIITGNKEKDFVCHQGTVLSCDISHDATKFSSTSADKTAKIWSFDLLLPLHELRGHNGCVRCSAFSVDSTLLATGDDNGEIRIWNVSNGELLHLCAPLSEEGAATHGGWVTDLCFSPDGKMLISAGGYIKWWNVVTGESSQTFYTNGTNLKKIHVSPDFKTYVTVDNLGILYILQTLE

[6] = target: T5, Probable nicotinate-nucleotide adenylyltransferase (Staphylococcus aureus (strain N315), UniProt P65502); format: functional, Staphylococcus aureus subsp. aureus N315;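 on IC50 Mean: confirmatory dose-response retesting of NadD inhibitor hits first found in an ultra-high-throughput screen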
[7] = target: T5, Probable nicotinate-nucleotide adenylyltransferase; format: functional, Staphylococcus aureus subsp. aureus N315; conditions: read-out: IC50_Mean
[8] = target: T6, Sentrin-specific protease 8 (Homo sapiens, UniProt Q96LD8); format: functional
T6 sequence (Q96LD8 whole entry): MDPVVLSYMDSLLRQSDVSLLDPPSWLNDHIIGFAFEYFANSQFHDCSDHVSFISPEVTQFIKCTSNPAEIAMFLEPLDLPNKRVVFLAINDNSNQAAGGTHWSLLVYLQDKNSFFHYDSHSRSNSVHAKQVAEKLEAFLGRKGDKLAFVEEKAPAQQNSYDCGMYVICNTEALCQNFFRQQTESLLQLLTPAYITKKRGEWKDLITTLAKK

[9] = target: T6, Sentrin-specific protease 8; format: functional; remark: listed apart in the source
Vero [10] = assay: Vero cell cytotoxicity, cytotoxicity control for flavivirus capping enzyme inhibitors (AID 588742); format: functional; conditions: Chlorocebus sabaeus
[11] = Artemis endonuclease inhibitor potency, dose response, biochemical, fluorescence intensity (AID 720701); format: functional;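 further: Artemis endonuclease enzyme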
[12] = NIH-3T3 fibroblast cytotoxicity, dose response, cytotoxicity control, cell-based, fluorescence, Alamar Blue, secondary assay (AID 2327); format: functional;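 further: NIH-3T3 mouse fibroblasts cultured with fluconazole at 8 µg/mL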
[13] = C. albicans growth with fluconazole, confirmation, fluorescence, retest (AID 2467); format: functional, cell-based
NS3 = NS3 (Hepatitis C virus, UniProt A3EZJ3); assay: PubChem AID 2173; set-up: species or system Hepacivirus hominis
Vero [14] = assay: cells; format: functional, cell-based; conditions: Chlorocebus sabaeus
Vero [15] = assay: cells; format: functional; conditions: Chlorocebus sabaeus
Kallikrein-7 = Kallikrein-7 (Homo sapiens, UniProt P49862); assay: Fluorescence Intensity-based biochemical primary high throughput dose response assay to identify activators of kallikrein-7 (K7) zymogen.
Sequence of Kallikrein-7 (P49862 whole entry): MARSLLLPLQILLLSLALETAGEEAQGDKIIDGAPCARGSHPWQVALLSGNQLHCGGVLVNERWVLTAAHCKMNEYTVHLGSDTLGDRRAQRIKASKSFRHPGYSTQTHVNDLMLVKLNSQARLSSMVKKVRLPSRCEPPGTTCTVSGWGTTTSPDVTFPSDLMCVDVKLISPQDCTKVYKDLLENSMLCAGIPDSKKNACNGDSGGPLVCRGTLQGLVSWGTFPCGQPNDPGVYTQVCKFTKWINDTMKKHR

T5 sequence (P65502 whole entry): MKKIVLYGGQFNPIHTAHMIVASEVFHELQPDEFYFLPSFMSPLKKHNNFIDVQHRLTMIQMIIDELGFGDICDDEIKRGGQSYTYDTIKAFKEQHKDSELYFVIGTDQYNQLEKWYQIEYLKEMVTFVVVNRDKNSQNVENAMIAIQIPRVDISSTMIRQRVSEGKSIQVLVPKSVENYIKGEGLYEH
Sequence of Beta-galactosidase (Q8VNN2 whole entry): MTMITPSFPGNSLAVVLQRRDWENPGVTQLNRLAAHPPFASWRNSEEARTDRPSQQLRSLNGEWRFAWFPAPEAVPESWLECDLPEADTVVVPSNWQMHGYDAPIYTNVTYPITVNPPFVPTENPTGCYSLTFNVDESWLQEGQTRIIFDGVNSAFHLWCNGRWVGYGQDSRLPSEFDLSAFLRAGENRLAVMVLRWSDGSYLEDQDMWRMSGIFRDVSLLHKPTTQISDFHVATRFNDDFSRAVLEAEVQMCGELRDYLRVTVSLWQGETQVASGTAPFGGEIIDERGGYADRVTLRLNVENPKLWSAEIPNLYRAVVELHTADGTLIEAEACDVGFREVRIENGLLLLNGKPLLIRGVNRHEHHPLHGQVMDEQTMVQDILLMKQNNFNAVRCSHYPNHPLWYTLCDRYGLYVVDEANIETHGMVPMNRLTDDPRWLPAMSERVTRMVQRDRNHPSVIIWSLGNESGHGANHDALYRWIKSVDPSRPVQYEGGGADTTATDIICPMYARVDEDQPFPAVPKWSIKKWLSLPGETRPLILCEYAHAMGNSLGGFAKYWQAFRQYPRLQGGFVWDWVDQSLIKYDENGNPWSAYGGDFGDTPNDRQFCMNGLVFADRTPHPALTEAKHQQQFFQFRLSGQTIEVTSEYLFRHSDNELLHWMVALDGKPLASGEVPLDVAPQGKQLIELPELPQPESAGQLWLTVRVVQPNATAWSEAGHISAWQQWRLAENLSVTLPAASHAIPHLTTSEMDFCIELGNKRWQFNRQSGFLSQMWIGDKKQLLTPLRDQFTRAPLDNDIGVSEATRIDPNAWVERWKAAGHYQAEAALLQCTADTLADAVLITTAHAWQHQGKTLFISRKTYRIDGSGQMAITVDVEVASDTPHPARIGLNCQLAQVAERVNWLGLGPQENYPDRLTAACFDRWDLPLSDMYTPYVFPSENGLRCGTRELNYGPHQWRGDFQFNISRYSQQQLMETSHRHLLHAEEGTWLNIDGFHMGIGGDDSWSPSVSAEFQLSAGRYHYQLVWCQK
T2 sequence (Q92731 whole entry): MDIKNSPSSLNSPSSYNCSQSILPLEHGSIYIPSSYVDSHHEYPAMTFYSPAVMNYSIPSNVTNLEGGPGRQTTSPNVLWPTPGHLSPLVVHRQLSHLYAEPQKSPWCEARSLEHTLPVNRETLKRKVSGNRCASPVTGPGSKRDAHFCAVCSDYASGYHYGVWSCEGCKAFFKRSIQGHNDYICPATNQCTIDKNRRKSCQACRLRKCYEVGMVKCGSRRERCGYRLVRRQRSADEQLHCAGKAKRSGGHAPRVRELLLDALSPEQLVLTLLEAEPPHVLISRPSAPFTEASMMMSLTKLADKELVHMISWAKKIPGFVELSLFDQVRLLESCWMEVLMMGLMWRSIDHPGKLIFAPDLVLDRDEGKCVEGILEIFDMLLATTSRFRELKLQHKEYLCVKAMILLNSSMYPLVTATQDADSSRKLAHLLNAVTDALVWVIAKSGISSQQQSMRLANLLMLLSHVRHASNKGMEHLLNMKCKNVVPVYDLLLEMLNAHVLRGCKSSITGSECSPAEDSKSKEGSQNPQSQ
Sequence of NS3 (A3EZJ3 whole entry): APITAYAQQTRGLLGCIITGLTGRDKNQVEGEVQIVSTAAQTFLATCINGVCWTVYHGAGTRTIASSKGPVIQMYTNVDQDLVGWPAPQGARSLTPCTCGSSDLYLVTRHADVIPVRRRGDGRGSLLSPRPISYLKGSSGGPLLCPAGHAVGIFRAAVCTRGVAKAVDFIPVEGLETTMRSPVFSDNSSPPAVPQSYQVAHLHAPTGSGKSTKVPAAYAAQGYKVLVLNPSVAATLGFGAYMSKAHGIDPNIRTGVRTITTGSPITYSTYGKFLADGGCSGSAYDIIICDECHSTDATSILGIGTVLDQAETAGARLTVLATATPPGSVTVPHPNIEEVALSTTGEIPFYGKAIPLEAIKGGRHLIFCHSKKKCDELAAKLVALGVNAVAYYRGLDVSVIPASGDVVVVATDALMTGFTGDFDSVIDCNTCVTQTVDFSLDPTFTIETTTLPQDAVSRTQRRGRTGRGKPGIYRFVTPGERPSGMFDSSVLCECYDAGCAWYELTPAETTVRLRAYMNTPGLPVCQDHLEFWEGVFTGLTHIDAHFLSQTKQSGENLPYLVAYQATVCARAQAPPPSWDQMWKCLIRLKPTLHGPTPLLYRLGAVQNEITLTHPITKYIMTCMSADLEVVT

COc1ccc2c(c1)c(=O)oc1cc3oc(C)c(C)c3cc12
IC50 (Estrogen receptor): 6.9 µM (active) | IC50 (Estrogen receptor beta [1]): 12.6 µM (active) | IC50 (Estrogen receptor beta [2]): 0.205 µM (not active)

Cc1cc(OCC(=O)N(C)Cc2ccccc2)ccc1Cl
AC50 (INS1): > 260 µM (inactive) | IC50 (Beta-galactosidase): > 80 µM (inactive)

O=C(CSCc1ccccc1)NNC(=S)Nc1cccc(Cl)c1Cl
IC50 [3]: > 122 µM (inactive)

COc1ccc(OCC(=O)N2CCN(C/C=C/c3ccccc3)CC2)cc1
IC50 (Beta-galactosidase): > 80 µM (inactive)

Cc1[nH][nH]c(=O)c1C(c1c(C)[nH][nH]c1=O)c1cn(Cc2cccc3ccccc23)c2ccccc12
AC50 [4]: 11.4 µM (active) | IC50 [5]: 19.3 µM (active) | IC50 [6]: 6.89 µM (active) | IC50 [7]: 14.7 µM (active) | IC50 [8]: 3.36 µM (active) | IC50 [9]: 5.32 µM (active)

Cc1n[nH]c(O)c1C(c1c(C)n[nH]c1O)c1cn(Cc2cccc3ccccc23)c2ccccc12
CC50 (Vero [10]): > 40 µM (active) | IC50 [11]: 12.5 µM (active)

CCCCOc1ccccc1C(=O)NNC(=S)NC(=O)c1ccccc1[N+](=O)[O-]
EC50 [12]: > 150 µM (inactive) | EC50 [13]: > 38 µM (not active) | IC50 (NS3): 12.2 µM (not active) | IC50 (Vero [14]): > 12.5 µM (active) | CC50 (Vero [15]): 15.8 µM (active) | IC50 [3]: 20.8 µM (inactive)

CSc1ccc(C2NC(=O)c3ccccc3N2)cc1 (configuration not stated)
EC50 (Kallikrein-7): > 69.5 µM (inactive)
